Results as given in article PMC12655172, “Borylated 5-Membered Ring Iminosugars: Synthesis and Biological Evaluation for Glycosidase Inhibition and Anticancer Properties for Application in Boron Neutron Capture Therapy (BNCT)—Part 2” (Pharmaceuticals, 2025).

What was measured:
[1] = tested on: α-D-glucosidase (rat intestinal maltase); experiment: Glycosidase inhibition (Table 2 panel); format: biochemical
Source text: (§1) The enzymes α-D-glucosidase (yeast), β-D-glucosidases (almond, bovine liver), α-D-galactosidase (coffee beans), β-D-galactosidase (bovine liver), α-D-mannosidase (Jack bean), β-D-mannosidase (snail), α-L-rhamnosidase (P. decumbens), α-L-fucosidase (bovine kidney), trehalase (porcine kidney), β-D-glucuronidases (E. coli, bovine liver), amyloglucosidase (A. niger), para-nitrophenyl glycosides, and various disaccharides were purchased from Sigma-Aldrich Co (St. Louis, MO, USA).
(§2) Brush border membranes were prepared from the rat small intestine according to the method of Kessler et al., and were assayed at pH 6.8 for rat intestinal maltase using maltose. For rat intestinal maltase, porcine kidney trehalase, and A. niger amyloglucosidase activities, the reaction mixture contained maltose ([…]) and the appropriate amount of enzyme, and the incubations were performed for 10–30 min at 37 °C. The reaction was stopped by heating at 100 °C for 3 min. After centrifugation (600 g; 10 min), the resulting reaction mixture was added to the Glucose CII-test Wako (Wako Pure Chemical Ind., Osaka, Japan). The absorbance at 505 nm was measured to determine the amount of the released D-glucose. Other glycosidase activities were determined using an appropriate para-nitrophenyl glycoside as substrate at the optimum pH of each enzyme. The reaction mixture contained the substrate ([…]) and the appropriate amount of enzyme. The reaction was stopped by the addition of Na2CO3 ([…]). The released para-nitrophenol was measured spectrometrically at 400 nm. All reactions were run in […].

α-D-glucosidase (rice) = α-D-glucosidase (rice) (Oryza sativa subsp. japonica, UniProt Q653V7); experiment: Glycosidase inhibition (Table 2 panel); format: biochemical
Source text: as §1, §2

β-D-mannosidase (snail) = experiment: Glycosidase inhibition (Table 2 panel); format: biochemical
Source text: as §1, §2

[2] = tested on: β-D-glucuronidase (bovine liver); experiment: Glycosidase inhibition (Table 2 panel); format: biochemical
Source text: as §1, §2

[3] = tested on: T1, α-D-mannosidase (Jack bean); experiment: Glycosidase inhibition (Table 2 panel); format: biochemical
T1 construct: purchased Sigma-Aldrich; host or cells: Jack bean
Source text: as §1, §2

[4] = tested on: T2, trehalase (porcine kidney); experiment: Glycosidase inhibition (Table 2 panel); format: biochemical
T2 construct: purchased Sigma-Aldrich; host or cells: porcine kidney
Source text: as §1, §2

β-D-glucosidase (almond) = experiment: Glycosidase inhibition (Table 2 panel); format: biochemical
Source text: as §1, §2

[5] = target: T3, β-D-glucosidase (bovine liver) (Bos taurus, UniProt F1MNT6); experiment: Glycosidase inhibition (Table 2 panel); format: biochemical
T3 sequence (F1MNT6 1-469): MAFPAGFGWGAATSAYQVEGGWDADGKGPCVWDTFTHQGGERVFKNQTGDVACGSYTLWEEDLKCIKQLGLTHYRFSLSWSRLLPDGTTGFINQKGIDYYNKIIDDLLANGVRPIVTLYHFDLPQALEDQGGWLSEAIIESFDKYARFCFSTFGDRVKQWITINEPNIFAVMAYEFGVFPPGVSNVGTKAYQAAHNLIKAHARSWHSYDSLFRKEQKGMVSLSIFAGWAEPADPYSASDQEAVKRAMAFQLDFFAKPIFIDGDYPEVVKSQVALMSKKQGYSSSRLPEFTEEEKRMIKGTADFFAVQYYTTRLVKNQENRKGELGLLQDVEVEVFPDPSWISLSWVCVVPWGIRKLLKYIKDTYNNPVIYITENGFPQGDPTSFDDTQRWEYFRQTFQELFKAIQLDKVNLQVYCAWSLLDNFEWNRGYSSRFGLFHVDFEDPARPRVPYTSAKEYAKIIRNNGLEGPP
Source text: as §1, §2

[6] = tested on: T4, α-D-galactosidase (coffee beans); experiment: Glycosidase inhibition (Table 2 panel); format: biochemical
T4 construct: purchased Sigma-Aldrich; host or cells: coffee beans
Source text: as §1, §2

[7] = tested on: α-L-rhamnosidase (P. decumbens); experiment: Glycosidase inhibition (Table 2 panel); format: biochemical
Source text: as §1, §2

[8] = tested on: MCF10A (non-tumour derived normal breast cell line); experiment: Cancer screening, MTT growth inhibition; format: cell-based; conditions: 72 h; for DOSE SCREEN percentage (%) cell growth inhibition MCF10A Breast (normal) / inhibition at 25 µM: 25 µM of drug; for inhibition at 25 µM / GI50: Homo sapiens, MCF-10A; for inhibition at 25 µM: read-out: DOSE SCREEN percentage (%) cell growth inhibition MCF10A Breast (normal); for GI50: read-out: DOSE RESPONSE GI50 MCF10A Breast (normal)
[9] = Sample appearance on sample preparation in water; format: physicochemical; conditions: 1 mL of water was added to 1 mg solid
[10] = tested on: MIA-Pa-Ca2 (pancreatic carcinoma); experiment: Cancer screening, MTT growth inhibition; format: cell-based; conditions: for DOSE SCREEN percentage (%) cell growth inhibition MIA-Pa-Ca2 Pancreatic: 25 µM of drug; for DOSE SCREEN percentage (%) cell growth inhibition MIA-Pa-Ca2 Pancreatic / inhibition at 25 µM: 72 h; for inhibition at 25 µM / GI50: Homo sapiens; for inhibition at 25 µM: MIA PaCa-2, 25 µM of drug, read-out: DOSE SCREEN percentage (%) cell growth inhibition MIA-Pa-Ca2 Pancreatic; for GI50: MIA PaCa-2, 72 h, read-out: DOSE RESPONSE GI50 MIA-Pa-Ca2 Pancreatic
Description: (§3) For Table 4, all test agents were prepared as stock solutions ([…]) in dimethyl sulfoxide (DMSO) and stored at −20 °C. Cell lines used in the study included HT29 (colorectal carcinoma), A2780 (ovarian carcinoma), H460 (lung carcinoma), A431 (skin carcinoma), MiaPaCa-2 (pancreatic carcinoma), and SMA560 (spontaneous murine astrocytoma), together with MCF10A (non-tumour derived normal breast cell line). Cell line sources: the HT29, H460, and MiaPaCa-2, together with MCF10A were purchased from ATCC. The A2780 and A431 were purchased from the European Collection of Cell Culture (ECACC). All cell lines were incubated in a humidified atmosphere 5% CO2 at 37 °C. The cancer cell lines were maintained in Dulbecco’s modified Eagle’s medium (DMEM; Sigma, Truganina, Australia) supplemented with foetal bovine serum (10%), sodium pyruvate ([…]), penicillin (100 IUmL^−1), streptomycin (100 µg mL^−1), and L-glutamine ([…]).
(§4) Growth inhibition was determined by plating cells in duplicate in medium (100 µL) at a density of 2500–4000 cells per well in 96-well plates. On day 0 (24 h after plating), when the cells are in logarithmic growth, medium (100 µL) with or without the test agent was added to each well. […] Each data point is the mean ± the standard error of the mean (SEM) calculated from three replicates which were performed on separate occasions and separate cell line passages.

H460 (lung carcinoma) = experiment: Cancer screening, MTT growth inhibition; format: cell-based; conditions: for DOSE SCREEN percentage (%) cell growth inhibition H460 Lung: 25 µM of drug; for DOSE SCREEN percentage (%) cell growth inhibition H460 Lung / inhibition at 25 µM: 72 h; for inhibition at 25 µM / GI50: Homo sapiens; for inhibition at 25 µM: NCI-H460, 25 µM of drug, read-out: DOSE SCREEN percentage (%) cell growth inhibition H460 Lung; for GI50: NCI-H460, 72 h, read-out: DOSE RESPONSE GI50 H460 Lung
Description: as §3, §4

[11] = tested on: A2780 (ovarian carcinoma); experiment: Cancer screening, MTT growth inhibition; format: cell-based; conditions: for DOSE SCREEN percentage (%) cell growth inhibition A2780 Ovarian: 25 µM of drug; for DOSE SCREEN percentage (%) cell growth inhibition A2780 Ovarian / inhibition at 25 µM: 72 h; for inhibition at 25 µM / GI50: Homo sapiens; for inhibition at 25 µM: A2780, 25 µM of drug, read-out: DOSE SCREEN percentage (%) cell growth inhibition A2780 Ovarian; for GI50: A2780, 72 h, read-out: DOSE RESPONSE GI50 A2780 Ovarian
Description: as §3, §4

[12] = listed as of the 1000 μM series

Sequence of α-D-glucosidase (rice) (Q653V7 34-885): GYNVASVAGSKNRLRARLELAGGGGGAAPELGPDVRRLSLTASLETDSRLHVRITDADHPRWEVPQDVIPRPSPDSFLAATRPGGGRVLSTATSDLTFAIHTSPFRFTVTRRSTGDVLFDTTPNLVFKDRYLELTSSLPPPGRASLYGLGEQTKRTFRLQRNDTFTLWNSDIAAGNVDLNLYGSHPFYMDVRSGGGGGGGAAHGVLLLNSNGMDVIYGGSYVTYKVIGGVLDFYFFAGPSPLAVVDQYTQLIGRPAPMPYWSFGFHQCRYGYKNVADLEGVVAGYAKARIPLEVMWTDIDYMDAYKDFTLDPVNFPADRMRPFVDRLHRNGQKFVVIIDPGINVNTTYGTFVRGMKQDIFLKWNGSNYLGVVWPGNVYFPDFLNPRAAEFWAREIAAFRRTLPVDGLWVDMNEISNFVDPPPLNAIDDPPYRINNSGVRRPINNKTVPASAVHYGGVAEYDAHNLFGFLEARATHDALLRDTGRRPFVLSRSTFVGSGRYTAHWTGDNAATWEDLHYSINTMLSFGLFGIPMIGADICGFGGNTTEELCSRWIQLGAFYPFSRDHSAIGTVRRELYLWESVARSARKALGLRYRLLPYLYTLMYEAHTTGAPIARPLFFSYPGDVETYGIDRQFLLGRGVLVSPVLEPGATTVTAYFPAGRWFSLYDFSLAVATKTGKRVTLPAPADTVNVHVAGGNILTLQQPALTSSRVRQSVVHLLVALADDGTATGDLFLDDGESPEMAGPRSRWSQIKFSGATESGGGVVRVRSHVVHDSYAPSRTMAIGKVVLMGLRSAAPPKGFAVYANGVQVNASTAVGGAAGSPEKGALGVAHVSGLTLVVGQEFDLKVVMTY

| Compound | inhibition % α-D-Glucosidase Rat Intestinal Maltase ([1]; at 100 μM) | inhibition % β-D-Mannosidase Snail (β-D-mannosidase (snail); at 100 μM) | inhibition % β-D-Glucuronidase Bovine Liver ([2]; at 100 μM) | inhibition % α-D-Mannosidase Jack Bean ([3]; at 100 μM) | inhibition % Trehalase Porcine Kidney ([4]; at 100 μM) | inhibition % β-D-Glucosidase Almond (β-D-glucosidase (almond); at 100 μM) | inhibition % α-D-Galactosidase Coffee Beans ([6]; at 100 μM) | inhibition % α-L-Rhamnosidase P. decumbens ([7]; at 100 μM) | DOSE SCREEN percentage (%) cell growth inhibition MCF10A Breast (normal) [8] | Sample Appearance [9] | DOSE SCREEN percentage (%) cell growth inhibition MIA-Pa-Ca2 Pancreatic [10] | DOSE SCREEN percentage (%) cell growth inhibition H460 Lung (H460 (lung carcinoma)) | DOSE SCREEN percentage (%) cell growth inhibition A2780 Ovarian [11] | inhibition % α-D-Glucosidase Rat Intestinal Maltase ([1]; at 1000 μM) | inhibition % β-D-Mannosidase Snail (β-D-mannosidase (snail); at 1000 μM) | inhibition % β-D-Glucuronidase Bovine Liver ([2]; at 1000 μM) | inhibition % α-D-Mannosidase Jack Bean ([3]; at 1000 μM) | inhibition % Trehalase Porcine Kidney ([4]; at 1000 μM) | inhibition % β-D-Glucosidase Almond (β-D-glucosidase (almond); at 1000 μM) | inhibition % α-D-Galactosidase Coffee Beans ([6]; at 1000 μM) | also measured |
| --- | --- | --- | --- | --- | --- | --- | --- | --- | --- | --- | --- | --- | --- | --- | --- | --- | --- | --- | --- | --- | --- |
| N[C@@H](Cc1ccc(B(O)O)cc1)C(=O)O [^10B-BPA, reference compound] | ^cNI ^d(0%) | ^cNI ^d(0.3%) | ^cNI ^d(0%) | ^cNI ^d(0%) | ^cNI ^d(0%) | ^cNI ^d(0%) | ^cNI ^d(1.2%) | ^cNI ^d(0%) | * <0% | Some in solution with undissolved sediment | * 11 ± 3% | * 8 ± 5% | * 8 ± 4% |  |  |  |  |  |  |  | inhibition % α-D-Glucosidase Rice (α-D-glucosidase (rice); at 100 μM): ^cNI ^d(0%); inhibition % β-D-Glucosidase Bovine Liver ([5]; at 100 μM): ^cNI ^d(14.2%) |
| Borocaptate sodium [BSH, reference compound] |  |  |  |  |  |  |  |  | * 8 ± 3% | In solution | * 2 ± 6% | * 8 ± 2% | * 2 ± 5% | ^aNI ^b(0%) | ^aNI ^b(19.2%) | ^aNI ^b(19.6%) | ^aNI ^b(7.9%) | ^aNI ^b(4.2%) | ^aNI ^b(0%) | ^aNI ^b(12.3%) | inhibition % α-D-Glucosidase Rice (α-D-glucosidase (rice); at 1000 μM): ^aNI ^b(0%); inhibition % β-D-Glucosidase Bovine Liver ([5]; at 1000 μM): ^aNI ^b(15%); inhibition % α-L-Rhamnosidase P. decumbens ([7]; at 1000 μM): ^aNI ^b(0.2%) |
| OB(O)c1ccccc1CN1C[C@@H](O)[C@H]2OC(O)[C@H](O)[C@H]21 (stereo partly drawn) [ortho 3, N-(2-Methylphenylboronic acid)-3,6-dideoxy-3,6-imino-D-gulofuranose] | ^cNI ^d(0%) | ^cNI ^d(0%) | ^cNI ^d(2.9%) | ^cNI ^d(3.8%) | ^cNI ^d(0%) | ^cNI ^d(13.7%) | ^cNI ^d(0%) | ^cNI ^d(0%) |  | In solution |  |  |  | ^aNI ^b(0.7%) | ^aNI ^b(0%) | ^aNI ^b(6.6%) | ^aNI ^b(0%) | ^aNI ^b(0%) | ^aNI ^b(38.8%) | ^aNI ^b(0%) | inhibition at 100 µM (α-D-glucosidase (rice); at 100 μM): 0%; inhibition at 1000 µM (α-D-glucosidase (rice); at 1000 μM): 0%; inhibition at 100 µM ([5]; at 100 μM): 0%; inhibition % α-L-Rhamnosidase P. decumbens ([7]; at 1000 μM): ^aNI ^b(3.2%); inhibition at 25 µM [8]: 9 ± 7%; GI50 [8]: > 50 µM; inhibition at 25 µM [10]: 5 ± 5%; GI50 [10]: > 50 µM; inhibition at 25 µM (H460 (lung carcinoma)): 2 ± 1%; GI50 (H460 (lung carcinoma)): > 50 µM; inhibition at 25 µM [11]: 17 ± 2%; GI50 [11]: > 50 µM |
| OC[C@H](O)[C@@H]1[C@H](O)[C@H](O)CN1Cc1cccc(B(O)O)c1 [meta 4, N-(3-Methylphenylboronic acid)-1,4-dideoxy-1,4-imino-L-gulitol] | ^cNI ^d(22.8%) | ^cNI ^d(0%) | ^cNI ^d(0%) | ^cNI ^d(0%) | ^cNI ^d(0.8%) | ^cNI ^d(0.6%) | ^cNI ^d(1.1%) | ^cNI ^d(8.3%) |  | In solution |  |  |  |  | ^aNI ^b(0%) | ^aNI ^b(14.7%) | ^aNI ^b(0%) | ^aNI ^b(3.4%) | ^aNI ^b(43%) | ^aNI ^b(3.7%) | IC50 [1, 12]: 588 µM; inhibition at 100 µM (α-D-glucosidase (rice); at 100 μM): 8%; IC50 (α-D-glucosidase (rice); [12]): 106 µM; inhibition at 100 µM ([5]; at 100 μM): 0%; inhibition at 1000 µM ([5]; at 1000 μM): 37.9%; inhibition at 25 µM [8]: 14 ± 13%; GI50 [8]: > 50 µM; inhibition at 25 µM [10]: 16 ± 5%; GI50 [10]: > 50 µM; inhibition at 25 µM (H460 (lung carcinoma)): 7 ± 1%; GI50 (H460 (lung carcinoma)): > 50 µM; inhibition at 25 µM [11]: 18 ± 5%; GI50 [11]: > 50 µM |
